Test results reported in patent EP0388909A2, “Thiazole compounds, processes for the preparation thereof and pharmaceutical composition comprising the same” (FUJISAWA PHARMACEUTICAL CO., LTD., priority 1989, dated 1990).
Where a name gives a salt, the structure may show the parent alone.

Assays:
[1] = target: T1, cyclooxygenase (Oryctolagus cuniculus, UniProt O97554); assay: Effect on malondialdehyde (MDA) production in rabbit platelets; format: cell-based; details: dose required to inhibit the production of malondialdehyde by 50%; washed rabbit PRP, arachidonic acid added; read-out: IC₅₀
T1 construct: Washed rabbit PRP (900 µl) was preincubated with drug solution; endogenous in cells; host or cells: washed rabbit platelets (PRP)
T1 sequence (O97554 31-606): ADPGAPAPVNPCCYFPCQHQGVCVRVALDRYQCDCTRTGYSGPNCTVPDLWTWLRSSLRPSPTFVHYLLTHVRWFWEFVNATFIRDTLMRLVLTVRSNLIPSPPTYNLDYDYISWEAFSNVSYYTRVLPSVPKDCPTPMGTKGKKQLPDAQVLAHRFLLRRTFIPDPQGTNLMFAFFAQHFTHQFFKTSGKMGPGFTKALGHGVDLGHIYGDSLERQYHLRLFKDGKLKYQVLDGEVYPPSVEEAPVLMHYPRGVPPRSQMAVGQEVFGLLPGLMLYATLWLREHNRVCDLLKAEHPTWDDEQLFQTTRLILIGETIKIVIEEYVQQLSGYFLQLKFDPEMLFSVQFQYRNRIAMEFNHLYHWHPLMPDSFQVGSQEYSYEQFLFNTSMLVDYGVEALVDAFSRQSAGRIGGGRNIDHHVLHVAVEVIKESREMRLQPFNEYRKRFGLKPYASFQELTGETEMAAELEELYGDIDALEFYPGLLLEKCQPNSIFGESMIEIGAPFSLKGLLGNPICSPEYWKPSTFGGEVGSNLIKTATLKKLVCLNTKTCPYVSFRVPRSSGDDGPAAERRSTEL
Procedure: Washed rabbit PRP (900 µl) was preincubated with drug solution (dissolved in dimethyl sulfoxide) (100 µl) at 37°C for 5 minutes. Then, 2.5 mM arachidonic acid solution (20 µl) was added to the reaction mixture. After 3 minutes, thiobarbiturate reagent (1000 µl) was added, and the reaction mixture was heated in a boiled water. After centrifugation at 1500 g for 10 minutes, the absorbance of suparnatant was measured at 532 nm. This test was carried out to see inhibitory activity of the test compound against the activity of cyclooxygenase. Activity of the test compound was expressed as IC₅₀ values i.e. doses required to inhibit the production of malondialdehyde by 50%.

[2] = test system: isolated rat aorta; assay: Relaxation effect on isolated rat aorta (KCl-induced contraction); details: dose required to relax the isolated rat aorta by 50%; contraction induced by KCl 30 mM; maximum relaxation by 10⁻⁴M papaverine; read-out: ED₅₀
Procedure: Helical strip of rat thoracic aorta was suspended in the organ bath containing Tyrode solution gassed with 95% O₂ - 5% CO₂ at 37°C under 0.5 g load. Contraction was induced by addition of KCℓ solution (final concentration was 30 mM). […] Activities of the test compound were expressed as ED₅₀ values i.e. doses required to relax the isolated rat aorta by 50%.

[3] = test system: human washed platelets; assay: Thrombin induced aggregation in human washed platelets; format: cell-based; details: Concentration 1.0 x 10⁻⁵ M; thrombin final conc. 0.3-0.5 U/ml
Procedure: Blood was drawn from healthy volunteers into a plastic tube containing 1/10 volume of 3.8% sodium citrate and centrifuged at 120 g for 10 minutes to obtain platelet rich plasma (PRP). An equal volume of 25 mM Tris-HCl buffer (pH 7.4) containing 130 mM NaCl and 1.5 mM EDTA (buffer A) was added to the PRP, mixed and centrifuged at 1500 g for 10 minutes. The platelet pellet was suspended in buffer A and centrifuged at 1500 g for 5 minutes. The platelets were resuspended in 25 mM Tris-HCl buffer (pH 7.4) containing 130 mM NaCl and 0.3 mM EDTA and recentrifuged at 1500 g for 5 minutes. The platelets were finally suspended in Tyrode solution containing 0.3 % bovine serum albumin and the platelet count was adjusted to 3 x 10⁸/ml. To 247.5 µl of platelet suspension, 2.5 µl of drug solution was added and incubated for 2 minutes at 37°C prior to addition of thrombin solution (final conc. 0.3-0.5 U/ml). Platelet aggregation was turbidometrically measured using a HEMA-TRACER 1.

[4] = test system: PRP; assay: Platelet aggregation ex vivo (arachidonic acid induced, PRP after oral dosing); format: in vivo; details: Cavia porcellus, 6 h, Dose 1.0 mg/kg oral, blood collected six hours after administration, arachidonic acid final 50 µM as aggregation inducer, male Hartley guinea-pigs
Procedure: Male Hartley guinea-pigs weighing about 300 g were used after 24 hours fasting. Six hours after oral administration of the test compound or vehicle of test compound (control), blood was collected into a tube containing 0.1 vol. of 3.8% sodium citrate and prepared platelet rich plasma (PRP).
To the […] of PRP, 5 µl of arachidonic acid (final 50 µM) was added as an aggregation inducer. Aggregation was measured by using an aggregometer (NKK HEMA-TRACER 1).

SMILES: COc1ccc(-c2nc(CNC(C)=O)sc2-c2ccc(OC)cc2)cc1 [Example 1, 2-acetylaminomethyl-4,5-bis(4-methoxyphenyl)thiazole]
- IC50 [1]: 15 nM

SMILES: COc1ccc(-c2nc(CNC(=O)c3cccnc3)sc2-c2ccc(OC)cc2)cc1 [Example 19, 4,5-bis(4-methoxyphenyl)-2-(nicotinoylaminomethyl)thiazole hydrochloride]
- EC50 [2]: 8.2 µM

SMILES: CNC(=O)NCc1nc(-c2ccc(OC)cc2)c(-c2ccc(OC)cc2)s1 [Example 24, 4,5-Bis(4-methoxyphenyl)-2-(3-methylureidomethyl)thiazole]
- Inhibition of the aggregation (%) [3]: 71.3%

SMILES: COc1ccc(-c2nc(CNC(=O)C3=NNC(=O)CC3)sc2-c2ccc(OC)cc2)cc1 [Example 15, 4,5-bis(4-methoxyphenyl)-2-{(6-oxo-1,4,5,6-tetrahydropyridazin-3-yl)carbonyiaminomethyl}thiazole]
- inhibition at 1 mg/kg [4]: 100%
- EC50 [2]: 7.3 µM
